No end group written: not given here. *: point of attachment. Octanoyl = CCCCCCCC(=O)*
Tested on: persistently symptomatic concussion patients
Assay: Phase 2 study of OXE-103 in persistently symptomatic concussion: PCSS symptom scoring
Assay type: in vivo, human
Conditions: for 30% Responders - PCSS: Number of Responders / 30% Responders - PCSS: Responder % / 20% Responders - PCSS: Number of Responders / 20% Responders - PCSS: Responder %: Treated, 13 subjects; for PCSS symptom balance_problems / PCSS symptom difficulty_concentrating / PCSS symptom difficulty_remembering / PCSS symptom dizziness / PCSS symptom drowsiness / PCSS symptom fatigue / PCSS symptom feeling_in_a_fog / PCSS symptom feeling_more_emotional / PCSS symptom feeling_slowed_down / PCSS symptom headache / PCSS symptom irritability / PCSS symptom nausea / PCSS symptom neck_pain / PCSS symptom nervous_anxious / PCSS symptom numbness_or_tingling / PCSS symptom sadness / PCSS symptom sensitivity_to_light / PCSS symptom sensitivity_to_noise / PCSS symptom sleeping_less_than_usual / PCSS symptom sleeping_more_than_usual / PCSS symptom trouble_falling_asleep / PCSS symptom visual_problems / PCSS symptom vomiting: aggregated
Text: Describe the change in symptom burden in sub-acute concussion for the two groups. A maximum of 50 subjects are enrolled, but recruiting stops if each arm has 20 participants, diagnosed with persistent concussion symptoms 28 days post injury who complete the study. Patients are randomized 1:1 to placebo versus OXE-103. The Post-Concussion Symptom Score questionnaire (PCSS) is used as an overall measure of symptom burden. The number of symptoms and severity at each time point are also measures of interest. In addition, subjects are asked to identify and rank the 4 most bothersome symptoms. Without being bound by theory, it is hypothesized that changes in these most bothersome symptoms have a higher correlation to improvement in quality of life. A visual comparison of change in the two groups is made. A change of 20% is considered to be clinically meaningful. This primary aim describes the change in symptoms between day 1 and day 14.
Described herein is a randomized, double-blind, placebo-controlled design where 40 subjects will be randomized to either a placebo cohort or a treatment with OXE-103 cohort. We randomize using the RedCap database. The database is set up to share randomization allocation only with the investigational pharmacy. All subjects are consented and begin the screening period within 28 days post-injury. There is a 7-day screening period prior to randomization and commencement of study treatment to allow for assessment of stability of symptom burden. This screening period must start no later than 28 days post-injury. Starting with Day 1 (end of screening period), the treatment cohort receives OXE-103 40ug/kg SC twice daily by self-injection and the placebo group receives a placebo injection SC twice daily. Study drug and placebo are maintained and dispensed by Investigational Pharmacy. Subjects receive an 8-day supply of syringes pre-loaded with OXE-103 or placebo. Each cohort receives the 2nd set of syringes with OXE-103 or placebo at the day 7 visit. No therapies other than OXE-103 are administered during the 14-day treatment period to either cohort. After completion of 14 days of either placebo or OXE-103 treatment, starting with the Day 14 visit, other medications and therapies can be initiated for either cohort as needed.
Symptom reduction (AIM 1): Our primary goal is to describe the change in number of symptoms and/or severity in sub-acute concussion with treatment with OXE-103 using the PCSS at days 1 and 15. We will also collect data at days 21 and 44 to potentially describe long term changes and potential lasting effect (AIM 4).
Subjects complete the PCSS at the following timepoints[17]: upon signing consent (score must 20) (day −7), mid-way through the screening period (day −3), prior to assignment of a treatment cohort (score must 20) (day 1), as well as days 4, 8, 11, 15, 21 and 44. Subjects are instructed to record their symptoms at the same time of day for each assessment timepoint. There can be a two-hour window either way. (e.g. 12 PM+/−2 hrs.) The PCSS is recorded via a RedCap survey. The PCSS is a self-reported assessment of 22 symptoms using a Likert-type scale ranging from 0-6, with 0 indicating no difficulty with the outlined symptom and ratings of 1-6 representing mild-to-severe difficulty with the symptom. The reliability and validity of the PCSS are well documented We also ask subjects to rank their 4 most burdensome symptoms (4MBS) at Day 1 and we analyze these separately. As stated in the Specific Aims the purpose of this study is to collect data that would further refine clinical endpoints that could be used for larger Phase 2 studies and possibly lead to the establishment of pivotal endpoints for Phase 3 registration trials. The 22 symptom PCSS assessment is designed to cover the full spectrum of concussion related symptoms across cognitive, emotional and somatic domains. In that regard the PCSS is particularly useful for diagnosis and monitoring recovery of patients post injury. […]

Substance: ghrelin (GSS(Octanoyl)FLSPEHQRVQQRKESKKPPAKLQPR; UniProt Q9UBU3 24-51, looked up) [OXE-103, naturally occurring peptide comprising 28 amino acids that include an N-octanoyl group at the 3-position of serine]
- 30% Responders - PCSS: Number of Responders (Day 11): 7
- 30% Responders - PCSS: Responder % (Day 11): 54%
- PCSS symptom balance_problems (Day 15, OXE-103 Treated): 22
- PCSS symptom difficulty_concentrating (Day 15, OXE-103 Treated): 30
- PCSS symptom difficulty_remembering (Day 15, OXE-103 Treated): 26
- PCSS symptom dizziness (Day 15, OXE-103 Treated): 21
- PCSS symptom drowsiness (Day 15, OXE-103 Treated): 25
- PCSS symptom fatigue (Day 15, OXE-103 Treated): 30
- PCSS symptom feeling_in_a_fog (Day 15, OXE-103 Treated): 20
- PCSS symptom feeling_more_emotional (Day 15, OXE-103 Treated): 22
- PCSS symptom feeling_slowed_down (Day 15, OXE-103 Treated): 23
- PCSS symptom headache (Day 15, OXE-103 Treated): 25
- PCSS symptom irritability (Day 15, OXE-103 Treated): 25
- PCSS symptom nausea (Day 15, OXE-103 Treated): 6
- PCSS symptom neck_pain (Day 15, OXE-103 Treated): 20
- PCSS symptom nervous_anxious (Day 15, OXE-103 Treated): 23
- PCSS symptom numbness_or_tingling (Day 15, OXE-103 Treated): 5
- PCSS symptom sadness (Day 15, OXE-103 Treated): 21
- PCSS symptom sensitivity_to_light (Day 15, OXE-103 Treated): 18
- PCSS symptom sensitivity_to_noise (Day 15, OXE-103 Treated): 16
- PCSS symptom sleeping_less_than_usual (Day 15, OXE-103 Treated): 22
- PCSS symptom sleeping_more_than_usual (Day 15, OXE-103 Treated): 15
- PCSS symptom trouble_falling_asleep (Day 15, OXE-103 Treated): 25
- PCSS symptom visual_problems (Day 15, OXE-103 Treated): 17
- PCSS symptom vomiting (Day 15, OXE-103 Treated): 1
- 20% Responders - PCSS: Number of Responders (Day 15): 9
- 20% Responders - PCSS: Responder % (Day 15): 69%
- 30% Responders - PCSS: Number of Responders (Day 15): 7
- 30% Responders - PCSS: Responder % (Day 15): 54%
- PCSS symptom balance_problems (Day 21, OXE-103 Treated): 23
- PCSS symptom difficulty_concentrating (Day 21, OXE-103 Treated): 24
- PCSS symptom difficulty_remembering (Day 21, OXE-103 Treated): 26
- PCSS symptom dizziness (Day 21, OXE-103 Treated): 23
- PCSS symptom drowsiness (Day 21, OXE-103 Treated): 26
- PCSS symptom fatigue (Day 21, OXE-103 Treated): 28
- PCSS symptom feeling_in_a_fog (Day 21, OXE-103 Treated): 24
- PCSS symptom feeling_more_emotional (Day 21, OXE-103 Treated): 19
- PCSS symptom feeling_slowed_down (Day 21, OXE-103 Treated): 26
- PCSS symptom headache (Day 21, OXE-103 Treated): 23
- PCSS symptom irritability (Day 21, OXE-103 Treated): 21
- PCSS symptom nausea (Day 21, OXE-103 Treated): 12
- PCSS symptom neck_pain (Day 21, OXE-103 Treated): 21
- PCSS symptom nervous_anxious (Day 21, OXE-103 Treated): 16
- PCSS symptom numbness_or_tingling (Day 21, OXE-103 Treated): 6
- PCSS symptom sadness (Day 21, OXE-103 Treated): 14
- PCSS symptom sensitivity_to_light (Day 21, OXE-103 Treated): 21
- PCSS symptom sensitivity_to_noise (Day 21, OXE-103 Treated): 18
- PCSS symptom sleeping_less_than_usual (Day 21, OXE-103 Treated): 19
- PCSS symptom sleeping_more_than_usual (Day 21, OXE-103 Treated): 15
- PCSS symptom trouble_falling_asleep (Day 21, OXE-103 Treated): 24
- PCSS symptom visual_problems (Day 21, OXE-103 Treated): 19
- PCSS symptom vomiting (Day 21, OXE-103 Treated): 0
- 20% Responders - PCSS: Number of Responders (Day 21): 9
- 20% Responders - PCSS: Responder % (Day 21): 69%
- 30% Responders - PCSS: Number of Responders (Day 21): 8
- 30% Responders - PCSS: Responder % (Day 21): 62%
- PCSS symptom balance_problems (Day 44, OXE-103 Treated): 12
- PCSS symptom difficulty_concentrating (Day 44, OXE-103 Treated): 16
- PCSS symptom difficulty_remembering (Day 44, OXE-103 Treated): 21
- PCSS symptom dizziness (Day 44, OXE-103 Treated): 9
- PCSS symptom drowsiness (Day 44, OXE-103 Treated): 16
- PCSS symptom fatigue (Day 44, OXE-103 Treated): 17
- PCSS symptom feeling_in_a_fog (Day 44, OXE-103 Treated): 16
- PCSS symptom feeling_more_emotional (Day 44, OXE-103 Treated): 7
- PCSS symptom feeling_slowed_down (Day 44, OXE-103 Treated): 18
- PCSS symptom headache (Day 44, OXE-103 Treated): 15
- PCSS symptom irritability (Day 44, OXE-103 Treated): 10
- PCSS symptom nausea (Day 44, OXE-103 Treated): 7
- PCSS symptom neck_pain (Day 44, OXE-103 Treated): 14
- PCSS symptom nervous_anxious (Day 44, OXE-103 Treated): 11
- PCSS symptom numbness_or_tingling (Day 44, OXE-103 Treated): 6
- PCSS symptom sadness (Day 44, OXE-103 Treated): 8
- PCSS symptom sensitivity_to_light (Day 44, OXE-103 Treated): 9
- PCSS symptom sensitivity_to_noise (Day 44, OXE-103 Treated): 13
- PCSS symptom sleeping_less_than_usual (Day 44, OXE-103 Treated): 11
- PCSS symptom sleeping_more_than_usual (Day 44, OXE-103 Treated): 8
- PCSS symptom trouble_falling_asleep (Day 44, OXE-103 Treated): 16
- PCSS symptom visual_problems (Day 44, OXE-103 Treated): 9
- PCSS symptom vomiting (Day 44, OXE-103 Treated): 1
- 20% Responders - PCSS: Number of Responders (Day 44): 11
- 20% Responders - PCSS: Responder % (Day 44): 85%
- 30% Responders - PCSS: Number of Responders (Day 44): 9
- 30% Responders - PCSS: Responder % (Day 44): 69%
- PCSS symptoms, change from Day 1 to Day 44 (FIG. 14) (aggregated across 11 OXE-103 treatment responders per symptom): reduction in all symptoms
- balance_problems % change from day 1 to day 44 (reduction, OXE-103 Treated): 60%
- difficulty_concentrating % change from day 1 to day 44 (reduction, OXE-103 Treated): 65%
- difficulty_remembering % change from day 1 to day 44 (reduction, OXE-103 Treated): 56%
- dizziness % change from day 1 to day 44 (reduction, OXE-103 Treated): 76%
- drowsiness % change from day 1 to day 44 (reduction, OXE-103 Treated): 58%
- fatigue % change from day 1 to day 44 (reduction, OXE-103 Treated): 60%
- feeling_in_a_fog % change from day 1 to day 44 (reduction, OXE-103 Treated): 65%
- feeling_more_emotional % change from day 1 to day 44 (reduction, OXE-103 Treated): 77%
- feeling_slowed_down % change from day 1 to day 44 (reduction, OXE-103 Treated): 61%
- headache % change from day 1 to day 44 (reduction, OXE-103 Treated): 59%
- irritability % change from day 1 to day 44 (reduction, OXE-103 Treated): 71%
- nausea % change from day 1 to day 44 (reduction, OXE-103 Treated): 61%
- neck_pain % change from day 1 to day 44 (reduction, OXE-103 Treated): 63%
- nervous_anxious % change from day 1 to day 44 (reduction, OXE-103 Treated): 69%
- numbness_or_tingling % change from day 1 to day 44 (reduction, OXE-103 Treated): 63%
- sadness % change from day 1 to day 44 (reduction, OXE-103 Treated): 71%
- sensitivity_to_light % change from day 1 to day 44 (reduction, OXE-103 Treated): 74%
- sensitivity_to_noise % change from day 1 to day 44 (reduction, OXE-103 Treated): 64%
- sleeping_less_than_usual % change from day 1 to day 44 (reduction, OXE-103 Treated): 27%
- sleeping_more_than_usual % change from day 1 to day 44 (reduction, OXE-103 Treated): 67%
- trouble_falling_asleep % change from day 1 to day 44 (reduction, OXE-103 Treated): 57%
- visual_problems % change from day 1 to day 44 (reduction, OXE-103 Treated): 70%
- vomiting % change from day 1 to day 44 (reduction, OXE-103 Treated): 50%
